ChEMBL document CHEMBL1201862, “PubChem BioAssay data set” (2004)
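Five compound concentrations were applied to cells in 96-well plates for 48 hours; endpoints were derived by simple linear interpolation of the resulting dose-response curve. At the GI50, growth is halved.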 The source made the active and inactive calls. No stated cut-off is given here; in the data, active = GI50 up to about 1.1 µM and inactive = higher.

Legend:
Assay in all cases: DTP human tumour cell line panel, 48 h
[1] = tested on: OVCAR-5
[2] = tested on: SF-295
[3] = tested on: U-251
[4] = tested on: ACHN
[5] = tested on: M14
[6] = tested on: UACC-62
[7] = tested on: K562
[8] = tested on: EKVX
[9] = tested on: LOX IMVI
[10] = tested on: KM-20L2
[11] = tested on: 786-0
[12] = tested on: HT-29
[13] = tested on: CCRF-CEM
[14] = tested on: SK-MEL-2
[15] = tested on: NCI-H23
[16] = tested on: BT-549
[17] = tested on: NCI/ADR-RES
[18] = tested on: HOP-92
[19] = tested on: HL-60
[20] = tested on: MDA-N

Measured: GI50

COc1cc(OC)c(C(=O)c2cccs2)cc1N
inactive: [1] > 100 µM | [2] > 100 µM | [3] > 100 µM | [4] > 100 µM | [5] > 100 µM | [6] > 100 µM | [7] > 100 µM | [8] > 100 µM | [9] > 100 µM | [10] > 100 µM | [11] > 100 µM | [12] > 100 µM | [13] > 100 µM | [14] > 100 µM | [15] > 100 µM

COC(=O)[C@]12CC[C@H]3CN(S(=O)(=O)c4ccc(C)cc4)[C@H]([C@H]31)[C@H](c1ccco1)N2S(=O)(=O)c1ccc(C)cc1
inactive: [1] > 100 µM | [16] 30.1 µM | [2] 35.6 µM | [3] 64.3 µM | [4] 39.7 µM | [17] 29 µM | [5] 26.8 µM | [6] 19.4 µM | [7] 30.2 µM | [8] 51.1 µM | [9] 34.7 µM | [18] 10.1 µM | [11] 59.7 µM | [12] 38.8 µM | [13] 45.3 µM | [14] 29.2 µM | [15] 48.1 µM | [19] 30.2 µM | [20] 24.7 µM

O=c1c2cc(I)ccc2nc(S)n1Cc1ccccc1
inactive: [1] 43.1 µM | [16] 19.2 µM | [2] 9.02 µM | [3] 18.4 µM | [4] 4.49 µM | [17] 18.5 µM | [5] 9.25 µM | [6] 19.6 µM | [7] 35.6 µM | [8] 5.52 µM | [9] 37.8 µM | [18] 8.75 µM | [11] 11.5 µM | [12] 32.9 µM | [13] 5.69 µM | [14] 14.6 µM | [15] 7.59 µM | [19] 6.84 µM | [20] 9.2 µM

Cc1cc(S(=O)(=O)/N=C(\NN)NCC(=O)NN)c(S)cc1Cl
inactive: [1] > 10 µM | [16] > 10 µM | [2] > 10 µM | [3] > 10 µM | [4] > 10 µM | [17] > 10 µM | [5] > 10 µM | [6] > 10 µM | [7] > 10 µM | [8] > 10 µM | [9] > 10 µM | [18] > 10 µM | [11] > 10 µM | [12] > 10 µM | [13] > 10 µM | [14] > 10 µM | [15] > 10 µM | [19] > 10 µM | [20] > 10 µM

CC1=NN=C(N)N/C1=C/C(Sc1ccc(Cl)cc1)c1cccs1 (stereo not given)
inactive: [1] 18.5 µM | [16] 37.9 µM | [2] 11.7 µM | [3] 24.5 µM | [4] 12.9 µM | [17] 18.5 µM | [5] 13.4 µM | [6] > 10 µM | [7] 13.9 µM | [8] 14.4 µM | [9] 16.7 µM | [18] 28.1 µM | [11] 18.5 µM | [12] 12.3 µM | [13] 3.52 µM | [14] 13.4 µM | [15] 13.9 µM | [19] 4.07 µM | [20] 16.1 µM

Cc1cnoc1/N=C1\C=C(O)C(=O)c2ccccc21
inactive: [1] 10.9 µM | [16] 4.9 µM | [2] 22.8 µM | [3] 1.79 µM | [4] 21.8 µM | [17] 8.45 µM | [5] 12.5 µM | [6] 4.71 µM | [7] 1.73 µM | [8] 29.5 µM | [9] 5.26 µM | [18] 29.4 µM | [11] 53.2 µM | [12] 29 µM | [13] 16.1 µM | [14] 2.82 µM | [15] 4.71 µM | [19] 10 µM | [20] 1.26 µM

O=C1CC(Br)c2c(Br)sc(Br)c21 (stereo not given)
inactive: [1] 17.9 µM | [16] 19 µM | [2] 27.7 µM | [3] 17.3 µM | [4] 17.7 µM | [17] 34.5 µM | [5] 15.8 µM | [6] 17.1 µM | [7] 7.73 µM | [8] 19.3 µM | [9] 14.3 µM | [18] 17.7 µM | [11] 16.3 µM | [12] 16.7 µM | [13] 2.51 µM | [14] 18.5 µM | [15] 16.7 µM | [19] 14.2 µM | [20] 15.5 µM

Cn1c(=O)c2nc(COCc3nc4c(=O)n(C)c(=O)n(C)c4[nH]3)[nH]c2n(C)c1=O
inactive: [1] > 100 µM | [16] > 100 µM | [2] > 100 µM | [3] > 100 µM | [4] > 100 µM | [17] > 100 µM | [5] > 100 µM | [6] > 100 µM | [7] > 100 µM | [8] > 100 µM | [9] > 100 µM | [18] > 100 µM | [11] > 100 µM | [12] > 100 µM | [13] > 100 µM | [14] > 100 µM | [15] > 100 µM | [19] > 100 µM | [20] > 100 µM

COc1cc(OC)c2c(c1)OC(c1cccnc1)C(c1ccccc1)C2=O (stereo not given)
inactive: [1] > 100 µM | [16] > 100 µM | [2] > 100 µM | [3] > 100 µM | [4] > 100 µM | [17] 72.1 µM | [5] > 100 µM | [6] > 100 µM | [7] > 100 µM | [8] > 100 µM | [9] > 100 µM | [18] > 100 µM | [11] > 100 µM | [12] > 100 µM | [13] > 100 µM | [14] 34.4 µM | [15] > 100 µM | [19] > 100 µM | [20] 42.7 µM

O=c1c(C(c2cccc(C(c3c(O)oc4ccccc4c3=O)c3c(O)oc4ccccc4c3=O)c2)c2c(O)oc3ccccc3c2=O)c(O)oc2ccccc12
inactive: [1] > 100 µM | [16] 27.9 µM | [2] 41.5 µM | [3] 26.3 µM | [4] 36.6 µM | [17] > 100 µM | [5] > 100 µM | [6] 29 µM | [7] 27.9 µM | [8] 67.3 µM | [9] 18.7 µM | [18] 27.7 µM | [11] 17.7 µM | [12] 36.9 µM | [13] 32.4 µM | [14] > 100 µM | [15] 22.8 µM | [19] 21.7 µM | [20] 66.4 µM

O=c1oc2cc(O)ccc2cc1-c1nc2ccccc2o1
inactive: [1] > 100 µM | [16] 15.5 µM | [2] 44.9 µM | [3] 28.7 µM | [4] 32.3 µM | [17] 36.4 µM | [5] 36.3 µM | [6] 20 µM | [7] 30.4 µM | [8] 28.5 µM | [9] 44.4 µM | [18] 26.7 µM | [11] 30.5 µM | [12] 33.7 µM | [13] 8.87 µM | [14] 21.9 µM | [15] 32.6 µM | [19] 23.8 µM | [20] 40.8 µM
